According to patent publication US11203571B2, “Sulfonamides as modulators of sodium channels” (VERTEX PHARMACEUTICALS INCORPORATED, priority 2013, dated 2021):

Legend:
human Nav1.8 = human Nav1.8 (Homo sapiens (Human), UniProt Q9Y5Y9); test: E-VIPR optical membrane potential assay with electrical stimulation; format: cell-based; settings: HEK cells expressing human Nav1.8
Description: E-VIPR Optical Membrane Potential Assay Method with Electrical Stimulation
Sodium channels are voltage-dependent proteins that can be activated by inducing membrane voltage changes by applying electric fields. The electrical stimulation instrument and methods of use are described in Ion Channel Assay Methods PCT/US01/21652, herein incorporated by reference and are referred to as E-VIPR. The instrument comprises a microtiter plate handler, an optical system for exciting the coumarin dye while simultaneously recording the coumarin and oxonol emissions, a waveform generator, a current- or voltage-controlled amplifier, and a device for inserting electrodes in well. Under integrated computer control, this instrument passes user-programmed electrical stimulus protocols to cells within the wells of the microtiter plate.
24 hours before the assay on E-VIPR, HEK cells expressing human Nav1.8 were seeded in 384-well poly-lysine coated plates at 15,000-20,000 cells per well. HEK cells were grown in media (exact composition is specific to each cell type and NaV subtype) supplemented with 10% FBS (Fetal Bovine Serum, qualified; GibcoBRL #16140-071) and 1% Pen-Strep (Penicillin-Streptomycin; GibcoBRL #15140-122). Cells were grown in vented cap flasks, in 90% humidity and 5% CO2.
• 100 mg/mL Pluronic F-127 (Sigma #P2443), in dry DMSO • Compound Plates: 384-well round bottom plate, e.g. Corning 384-well Polypropylene Round Bottom #3656 • Cell Plates: 384-well tissue culture treated plate, e.g. Greiner #781091-1B • 10 mM DiSBAC6(3) (Aurora #00-100-010) in dry DMSO • 10 mM CC2-DMPE (Aurora #00-100-008) in dry DMSO • 200 mM ABSC1 in H20
Bath1 buffer: Glucose 10 mM (1.8 g/L), Magnesium Chloride (Anhydrous), 1 mM (0.095 g/L), Calcium Chloride, 2 mM (0.222 g/L), HEPES 10 mM (2.38 g/L), Potassium Chloride, 4.5 mM (0.335 g/L), Sodium Chloride 160 mM (9.35 g/L).
Hexyl Dye Solution: Bath1 Buffer+0.5% β-cyclodextrin (make this prior to use, Sigma #C4767), 8 μM CC2-DMPE+2.5 μM DiSBAC6(3). To make the solution Added volume of 10% Pluronic F127 stock equal to volumes of CC2-DMPE+DiSBAC6(3). The order of preparation was first mix Pluronic and CC2-DMPE, then added DiSBAC6(3) while vortexing, then added Bath1+β-Cyclodextrin.
1) Pre-spotted compounds (in neat DMSO) into compound plates. Vehicle control (neat DMSO), the positive control (20 mM DMSO stock tetracaine, 125 μM final in assay) and test compounds were added to each well at 160× desired final concentration in neat DMSO. Final compound plate volume was 80 μL (80-fold intermediate dilution from 1 μL DMSO spot; 160-fold final dilution after transfer to cell plate). Final DMSO concentration for all wells in assay was 0.625%.
2) Prepared Hexyl Dye Solution.
3) Prepared cell plates. On the day of the assay, medium was aspirated and cells were washed three times with 100 μL of Bath1 Solution, maintaining 25 μL residual volume in each well.
4) Dispensed 25 μL per well of Hexyl Dye Solution into cell plates. Incubated for 20-35 minutes at room temp or ambient conditions.
5) Dispensed 80 μL per well of Bath1 into compound plates. Acid Yellow-17 (1 mM) was added and Potassium Chloride was altered from 4.5 to 20 mM depending on the NaV subtype and assay sensitivity.
6) Washed cell plates three times with 100 μL per well of Bath1, leaving 25 μL of residual volume. Then transferred 25 uL per well from Compound Plates to Cell Plates. Incubated for 20-35 minutes at room temp/ambient condition.
7) Read Plate on E-VIPR. Used the current-controlled amplifier to deliver stimulation wave pulses for 10 seconds and a scan rate of 200 Hz. A pre-stimulus recording was performed for 0.5 seconds to obtain the un-stimulated intensities baseline. The stimulatory waveform was followed by 0.5 seconds of post-stimulation recording to examine the relaxation to the resting state.
Data was analyzed and reported as normalized ratios of emission intensities measured in the 460 nm and 580 nm channels. […]

[1] = Human liver microsome assay; format: in vitro ADME; settings: 1 uM substrate, 0.5 mg/mL liver microsome, 2 mM NADPH, 37° C., referenced against time zero control
Protocol: Human Liver Microsome Assay Protocol
Liver microsomal stability data were generated as follows. Substrates were incubated at 37° C. and shaken for 30 minutes in a phosphate buffered solution with human liver microsomes and the cofactor NADPH. A time zero control was similarly prepared, however with NADPH excluded. The final incubation concentrations were 1 uM substrate (0.2% DMSO), 0.5 mg/mL liver microsome, 2 mM NADPH, and 0.1 M phosphate. Reactions were quenched and proteins precipitated with the addition of 2 volume equivalents of ice cold acetonitrile containing an internal standard. Following a centrifugation step, aliquots from the quenched incubations were further diluted with 4 volume equivalents of a 50% aqueous methanol solution and then subjected to LC/MS/MS analysis for quantitation of parent substrate. Microsome stability values were calculated as the percent of substrate remaining after 30 minutes referenced against the time zero control.

Chain of human Nav1.8 (Q9Y5Y9 whole entry): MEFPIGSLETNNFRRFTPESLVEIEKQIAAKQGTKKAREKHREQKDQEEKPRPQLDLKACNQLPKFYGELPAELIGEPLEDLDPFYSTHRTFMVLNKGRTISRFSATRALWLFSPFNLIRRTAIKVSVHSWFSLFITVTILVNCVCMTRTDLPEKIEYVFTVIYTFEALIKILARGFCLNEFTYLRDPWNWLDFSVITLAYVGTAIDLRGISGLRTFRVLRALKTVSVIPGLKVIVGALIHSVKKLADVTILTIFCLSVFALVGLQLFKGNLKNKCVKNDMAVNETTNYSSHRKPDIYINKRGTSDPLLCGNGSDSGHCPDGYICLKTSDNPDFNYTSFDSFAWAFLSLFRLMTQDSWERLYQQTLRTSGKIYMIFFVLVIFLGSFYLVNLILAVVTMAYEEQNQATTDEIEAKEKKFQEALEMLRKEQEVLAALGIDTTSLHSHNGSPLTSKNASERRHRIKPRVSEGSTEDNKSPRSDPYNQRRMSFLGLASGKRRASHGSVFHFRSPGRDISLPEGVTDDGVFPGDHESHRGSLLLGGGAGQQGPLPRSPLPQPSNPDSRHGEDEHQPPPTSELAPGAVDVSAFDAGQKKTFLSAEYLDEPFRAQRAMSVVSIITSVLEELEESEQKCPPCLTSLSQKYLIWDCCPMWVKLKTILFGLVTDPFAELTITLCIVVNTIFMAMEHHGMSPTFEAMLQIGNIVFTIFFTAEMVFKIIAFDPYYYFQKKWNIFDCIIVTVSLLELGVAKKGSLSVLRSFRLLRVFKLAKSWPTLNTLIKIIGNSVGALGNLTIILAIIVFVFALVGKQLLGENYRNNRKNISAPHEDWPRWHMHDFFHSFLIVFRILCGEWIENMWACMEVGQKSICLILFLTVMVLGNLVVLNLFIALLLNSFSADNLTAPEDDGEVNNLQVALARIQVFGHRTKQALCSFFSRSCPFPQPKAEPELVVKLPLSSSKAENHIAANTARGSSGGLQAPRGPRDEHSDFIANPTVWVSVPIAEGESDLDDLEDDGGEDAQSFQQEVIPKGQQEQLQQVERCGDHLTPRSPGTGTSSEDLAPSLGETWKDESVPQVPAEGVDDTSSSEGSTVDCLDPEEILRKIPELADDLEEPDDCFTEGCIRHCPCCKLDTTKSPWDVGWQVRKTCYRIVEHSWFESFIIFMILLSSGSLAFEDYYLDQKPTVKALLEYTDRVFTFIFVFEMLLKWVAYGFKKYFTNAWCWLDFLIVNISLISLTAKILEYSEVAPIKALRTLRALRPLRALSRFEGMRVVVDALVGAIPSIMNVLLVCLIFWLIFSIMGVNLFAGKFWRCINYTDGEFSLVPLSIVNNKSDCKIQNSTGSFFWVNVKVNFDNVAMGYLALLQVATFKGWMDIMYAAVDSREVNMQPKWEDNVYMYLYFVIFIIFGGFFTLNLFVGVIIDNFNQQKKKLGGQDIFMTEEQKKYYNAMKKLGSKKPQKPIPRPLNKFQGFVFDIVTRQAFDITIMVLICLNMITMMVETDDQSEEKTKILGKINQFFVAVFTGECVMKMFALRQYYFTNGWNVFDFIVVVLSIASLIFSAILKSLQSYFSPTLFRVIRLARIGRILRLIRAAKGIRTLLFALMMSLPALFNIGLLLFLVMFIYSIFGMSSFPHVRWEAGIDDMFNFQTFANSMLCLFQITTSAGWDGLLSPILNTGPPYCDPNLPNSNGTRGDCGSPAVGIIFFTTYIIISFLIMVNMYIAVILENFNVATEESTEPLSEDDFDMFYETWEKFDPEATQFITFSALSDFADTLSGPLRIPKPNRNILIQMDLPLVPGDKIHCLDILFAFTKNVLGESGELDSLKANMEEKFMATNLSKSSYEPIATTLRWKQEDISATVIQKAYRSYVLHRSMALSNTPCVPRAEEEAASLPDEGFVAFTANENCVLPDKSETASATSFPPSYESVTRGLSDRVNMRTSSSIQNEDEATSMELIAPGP

Row | Compound | IC50 (human Nav1.8) [nM] | HLM: percent unchanged after 30 min [1] [%]
1 | COc1ccc(Oc2cccc(C(F)(F)F)c2C(=O)Nc2cccc(S(N)(=O)=O)c2)cc1F [Compound 61, 2-(3-fluoro-4-methoxyphenoxy)-N-(3-sulfamoylphenyl)-6-(trifluoromethyl)benzamide] | 28 | 68
2 | CC(C)Oc1ccc(Oc2cc(Cl)ccc2C(=O)Nc2cccc(S(N)(=O)=O)c2)cc1 [Compound 87, 4-chloro-2-(4-isopropoxyphenoxy)-N-(3-sulfamoylphenyl)benzamide] | 29 | –
3 | COc1cc(F)ccc1Oc1cc(Cl)ccc1C(=O)Nc1cccc(S(N)(=O)=O)c1 [Compound 15, 4-chloro-2-(4-fluoro-2-methoxy-phenoxy)-N-(3-sulfamoylphenyl)benzamide] | 13 | 81
4 | N#Cc1ccc(Oc2ccc(F)cc2Cl)c(C(=O)Nc2cccc(S(N)(=O)=O)c2)c1 [Compound 11, 2-(2-chloro-4-fluorophenoxy)-5-cyano-N-(3-sulfamoylphenyl)benzamide] | 24 | 89
5 | COc1cc(Cl)ccc1Oc1cc(OC(F)(F)F)ccc1C(=O)Nc1cccc(S(N)(=O)=O)c1 [Compound 65, 2-(4-chloro-2-methoxyphenoxy)-N-(3-sulfamoylphenyl)-4-(trifluoromethoxy)benzamide] | 22 | 101
6 | CC(C)Oc1ccc(Oc2cc(C(F)(F)F)ccc2C(=O)Nc2cccc(S(N)(=O)=O)c2)cc1 [Compound 53, 2-(4-isopropoxyphenoxy)-N-(3-sulfamoylphenyl)-4-(trifluoromethyl)benzamide] | 26 | 71
7 | COc1ccc(Oc2cc(Cl)ccc2C(=O)Nc2cccc(S(N)(=O)=O)c2)c(Cl)c1 [Compound 86, 4-chloro-2-(2-chloro-4-methoxyphenoxy)-N-(3-sulfamoylphenyl)benzamide] | 15 | 82
8 | NS(=O)(=O)c1cccc(NC(=O)c2ccc(OC(F)(F)F)cc2Oc2ccccc2Cl)c1 [Compound 63, 2-(2-chlorophenoxy)-N-(3-sulfamoylphenyl)-4-(trifluoromethoxy)benzamide] | 27 | 92
9 | Cc1c(F)cccc1Oc1cccc(C(F)(F)F)c1C(=O)Nc1cccc(S(N)(=O)=O)c1 [Compound 59, 2-(3-fluoro-2-methylphenoxy)-N-(3-sulfamoylphenyl)-6-(trifluoromethyl)benzamide] | 14 | 66
10 | Cc1cccc(Oc2ccc(F)cc2Cl)c1C(=O)Nc1cccc(S(N)(=O)=O)c1 [Compound 38, 2-(2-chloro-4-fluorophenoxy)-6-methyl-N-(3-sulfamoylphenyl)benzamide] | 14 | 105
11 | N#Cc1ccc(C(=O)Nc2cccc(S(N)(=O)=O)c2)c(Oc2ccc(F)cc2Cl)c1 [Compound 4, 2-(2-chloro-4-fluoro-phenoxy)-4-cyano-N-(3-sulfamoylphenyl)benzamide] | 27 | 118
12 | COc1ccc(Oc2cc(Cl)c(Cl)cc2C(=O)Nc2cccc(S(N)(=O)=O)c2)c(OC)c1 [Compound 76, 4,5-dichloro-2-(2,4-dimethoxyphenoxy)-N-(3-sulfamoylphenyl)benzamide] | – | 58
13 | COc1ccc(Oc2cc(C(F)(F)F)cc(C3CC3)c2C(=O)Nc2cccc(S(N)(=O)=O)c2)cc1F [Compound 100, 2-cyclopropyl-6-(3-fluoro-4-methoxyphenoxy)-N-(3-sulfamoylphenyl)-4-(trifluoromethyl)benzamide] | 18 | –
14 | COc1cc(Cl)ccc1Oc1cc(Cl)ccc1C(=O)Nc1cccc(S(N)(=O)=O)c1 [Compound 85, 4-chloro-2-(4-chloro-2-methoxyphenoxy)-N-(3-sulfamoylphenyl)benzamide] | 15 | –

Further molecules by falling IC50 (human Nav1.8), results first:

Row | IC50 (human Nav1.8) [nM] | HLM: percent unchanged after 30 min [1] [%] | Compound
15 | 9 | 94 | Cc1cc(F)ccc1Oc1cccc(C(F)(F)F)c1C(=O)Nc1cccc(S(N)(=O)=O)c1 [Compound 12, 2-(4-fluoro-2-methylphenoxy)-N-(3-sulfamoylphenyl)-6-(trifluoromethyl)benzamide]
16 | 7 | 105 | NS(=O)(=O)c1cccc(NC(=O)c2c(Oc3ccc(F)cc3)cc(C(F)(F)F)cc2C(F)(F)F)c1 [Compound 88, 2-(4-fluorophenoxy)-N-(3-sulfamoylphenyl)-4,6-bis(trifluoromethyl)benzamide]
17 | 5 | 102 | NS(=O)(=O)c1cccc(NC(=O)c2cc(Cl)ccc2Oc2ccc(F)cc2Cl)c1 [Compound 17, 5-chloro-2-(2-chloro-4-fluorophenoxy)-N-(3-sulfamoylphenyl)benzamide]
18 | 5 | 100 | COc1c(F)cccc1Oc1ccc(C(F)(F)F)cc1C(=O)Nc1cccc(S(N)(=O)=O)c1 [Compound 29, 2-(3-fluoro-2-methoxyphenoxy)-N-(3-sulfamoylphenyl)-5-(trifluoromethyl)benzamide]
19 | 5 | 96 | COc1cc(F)ccc1Oc1cc(OC(F)(F)F)ccc1C(=O)Nc1cccc(S(N)(=O)=O)c1 [Compound 54, 2-(4-fluoro-2-methoxyphenoxy)-N-(3-sulfamoylphenyl)-4-(trifluoromethoxy)benzamide]
20 | 5 | 93 | Cc1cc(F)ccc1Oc1cc(Cl)c(Cl)cc1C(=O)Nc1cccc(S(N)(=O)=O)c1 [Compound 83, 4,5-dichloro-2-(4-fluoro-2-methylphenoxy)-N-(3-sulfamoylphenyl)benzamide]
21 | 4 | 91 | COc1ccc(Oc2cc(Cl)c(Cl)cc2C(=O)Nc2cccc(S(N)(=O)=O)c2)cc1F [Compound 79, 4,5-dichloro-2-(3-fluoro-4-methoxyphenoxy)-N-(3-sulfamoylphenyl)benzamide]
22 | 4 | 102 | NS(=O)(=O)c1cccc(NC(=O)c2ccc(OC(F)(F)F)cc2Oc2ccc(F)cc2Cl)c1 [Compound 56, 2-(2-chloro-4-fluorophenoxy)-N-(3-sulfamoylphenyl)-4-(trifluoromethoxy)benzamide]
23 | 2 | 96 | Cc1cc(F)ccc1Oc1cc(C(F)(F)F)cc(C(F)(F)F)c1C(=O)Nc1cccc(S(N)(=O)=O)c1 [Compound 93, 2-(4-fluoro-2-methylphenoxy)-N-(3-sulfamoylphenyl)-4,6-bis(trifluoromethyl)benzamide]
24 | 0.8 | 62 | COc1cc(Cl)ccc1Oc1cc(Cl)cc(Cl)c1C(=O)Nc1cccc(S(N)(=O)=O)c1 [Compound 98, 2,4-dichloro-6-(4-chloro-2-methoxyphenoxy)-N-(3-sulfamoylphenyl)benzamide]
